Paper PMC6630470, “Anomeric Spironucleosides of β-D-Glucopyranosyl Uracil as Potential Inhibitors of Glycogen Phosphorylase” (Molecules, 2019)

Molecular target: T1, rabbit muscle glycogen phosphorylase b (RMGPb) (Oryctolagus cuniculus, UniProt P00489)
T1 construct: gene PYGM
T1 sequence (P00489 2-843): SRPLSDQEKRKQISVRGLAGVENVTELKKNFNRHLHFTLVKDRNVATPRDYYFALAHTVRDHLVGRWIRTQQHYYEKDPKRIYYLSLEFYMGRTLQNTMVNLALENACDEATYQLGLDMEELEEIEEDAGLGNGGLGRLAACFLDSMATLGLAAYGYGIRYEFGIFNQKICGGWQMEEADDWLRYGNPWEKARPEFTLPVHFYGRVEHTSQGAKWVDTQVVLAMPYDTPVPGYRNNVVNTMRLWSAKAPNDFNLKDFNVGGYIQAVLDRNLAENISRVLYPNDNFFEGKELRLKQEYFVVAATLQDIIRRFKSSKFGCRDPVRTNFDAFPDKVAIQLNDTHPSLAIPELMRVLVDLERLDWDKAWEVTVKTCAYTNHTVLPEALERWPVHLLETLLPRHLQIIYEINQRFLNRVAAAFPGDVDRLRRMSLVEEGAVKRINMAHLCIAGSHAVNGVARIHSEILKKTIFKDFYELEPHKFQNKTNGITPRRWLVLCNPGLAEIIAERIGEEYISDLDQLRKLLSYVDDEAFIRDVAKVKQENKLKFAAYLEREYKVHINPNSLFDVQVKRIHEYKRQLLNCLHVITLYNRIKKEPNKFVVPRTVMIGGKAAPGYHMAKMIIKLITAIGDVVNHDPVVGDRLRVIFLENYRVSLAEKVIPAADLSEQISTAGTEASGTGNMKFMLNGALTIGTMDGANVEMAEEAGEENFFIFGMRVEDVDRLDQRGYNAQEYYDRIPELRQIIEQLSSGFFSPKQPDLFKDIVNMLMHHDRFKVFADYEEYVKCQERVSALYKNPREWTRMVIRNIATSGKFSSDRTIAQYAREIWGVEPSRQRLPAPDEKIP
Assay: enzyme kinetics in the direction of glycogen synthesis with purified, recrystallized RMGPb ([…] AMP, […] glycogen)
Format: biochemical
Settings: read-out: % inhibition at 1 mM

Row | inhibition at 1000 µM [%] | SMILES
1 | 35 | O=c1cc2n(c(=O)[nH]1)[C@@]1(OC2)O[C@H](CO)[C@@H](O)[C@H](O)[C@H]1O [4b, (3S,3′R,4′S,5′S,6′R)-3′,4′,5′-Trihydroxy-6′-(hydroxymethyl)-3′,4′,5′,6′-tetrahydrospiro[oxazolo[3,4-c]pyrimidine-3,2′-pyran]-5,7(1H,6H)-dione]
2 | 26 | O=c1cc2n(c(=O)[nH]1)[C@]1(OC2)O[C@H](CO)[C@@H](O)[C@H](O)[C@H]1O [4a, (3R,3′R,4′S,5′S,6′R)-3′,4′,5′-Trihydroxy-6′-(hydroxymethyl)-3′,4′,5′,6′-tetrahydrospiro[oxazolo[3,4-c]pyrimidine-3,2′-pyran]-5,7(1H,6H)-dione]
